In assay [1] the test system is NanoLuciferase fused to various IKZF3-based degradation tags. Put plainly: Western blot of variant IKZF3-based degradation tags fused to NanoLuciferase in HEK293T cells. In kind it is cell-based, human. Particulars: tag fused to N-terminus of NanoLuciferase. The protocol: Additionally, the IKZF3-based degradation tags were modified using the following strategies:
(1) deleting N-terminal and/or C-terminal amino acid residues;
Protein degradation was measured using western blot as described in Example 2.

For assay [2], the system named is IKZF3 degron-tagged melanogenesis associated transcription factor (MITF). The experiment in a line: Western blot of IKZF3-tagged MITF in HEK293T cells. The assay is classed as cell-based, human. Conditions: for ability of the tag to mediate lenalidomide-dependent degradation of MITF: HEK293T, Western blot; for degradation of tagged MITF mediated by IMiD: 10 μM compound for 24 hours, IKZF3 136-180 and 236-249- and lysine free-tagged MITF. On the procedure:
IKZF3-based degradation tags were evaluated for their ability to facilitate the degradation of melanogenesis associated transcription factor (MITF) or avian myelocytomatosis viral oncogene (MYC) homolog by Western blot. In addition to the IKZF3-based degradation tags, MITF and MYC were also fused to a FLAG tag to facilitate their detection using an anti-FLAG antibody.
DMSO was used as vehicle control.
A general note: A western blot detects proteins with antibodies after separation by electrophoresis.

For a further assay, the target named is T1, HilD-Tau (wild type) (Homo sapiens, UniProt P10636+Q96SW2).
T1 construct: expressed in transfected cells; host or cells: HEK293T
The experiment in a line: Quantification of HilD-Tau degradation by Western analysis in HEK293T cells. Particulars: 1 μM MLN4924 co-treatment including 1 hour pretreatment. The assay is classed as cell-based.

Assay [3] concerns the target T2, IKZF3 136-180 and 236-249-tagged NanoLuciferase (Homo sapiens, UniProt Q96SW2+Q9UKT9, DEL181-196/S197T).
T2 construct: expressed in transfected cells; host or cells: HEK293T
The assay is classed as cell-based. Particulars: 1-hour pre-treatment (10 μM MG132; 128 or 12.8 ng/mL cyclohexamide).
Procedure: DMSO was included as a vehicle control. Luminescence was measured by reading each 384-well plate on a ViewLux® with 1-second and 5-second exposures. The data was imported into Spotfire® and visualizations were made by doing a NC3 normalization according to the following formula: 100*([Luminescence]/[DMSO]).

Assay [4] concerns the target T3, CAR19-CARBtag (Homo sapiens, UniProt Q96SW2+Q9UKS7, DEL175-229).
T3 construct: signal peptide […]; 16GS linker […]; expressed in transfected cells; host or cells: Jurkat NFAT luciferase (JNL) cells, lentiviral infection at MOI 4
Put plainly: Western blot of JNL cells expressing CAR19-CARBtag. In kind it is cell-based. Conditions: various doses of Compound I-112 for 24 hours.

A further assay has as its target T4, CARBtag-MITF-FLAG (Homo sapiens, UniProt O75030+Q9UKS7).
T4 construct: 16GS linker […]; MITF (NM_000248); expressed in transfected cells; host or cells: HEK293T (ATCC CRL-3216), transient, FuGene HD, CMV promoter vector
The experiment in a line: Western blot of HEK293T cells transiently transfected with CARBtag-MITF-FLAG. In kind it is cell-based. Particulars: 10 μM, 1 μM, 0.1 μM, or 0.01 μM Compound I-112 or lenalidomide.

Another assay deals with IKZF2 (Homo sapiens, UniProt Q96SW2+Q9UKS7). The experiment in a line: Degradation of IKZF2. In kind it is cell-based.
Another assay has as its target IKZF1 (Homo sapiens, UniProt Q13422+Q96SW2). Put plainly: Degradation of IKZF1. In kind it is cell-based.
The target of the next assay is IKZF3 (Homo sapiens, UniProt Q96SW2+Q9UKT9). The experiment in a line: Degradation of IKZF3. The assay is classed as cell-based.
Assay [5] addresses T3, CAR19-CARBtag. Put plainly: CAR19-CARBtag dose response in Jurkat NFAT luciferase cells, Western blot. In kind it is cell-based. Particulars: 10-0.001 μM, 24 hours; FIG. 38A. On the procedure:
(§1) Cells were expanded for one week before using. […] All cells were harvested at 24 hours after initial compound treatment for western blotting and flow cytometry analysis.
The gels were run in duplicate, one for actin and the other for either V5 or CD3Z.

The target of assay [6] is T3, CAR19-CARBtag. Put plainly: CAR19-CARBtag dose response in Jurkat NFAT luciferase cells, flow cytometry. In kind it is cell-based. Particulars: 10-0.001 μM, 24 hours; FIG. 38B. The protocol: as §1
After incubation the cells were washed using PBS.

For assay [7], the target named is T3, CAR19-CARBtag. The experiment in a line: Jurkat NFAT luciferase (JNL) CAR functional assay, CAR19-CARB-tag cells. The assay is classed as cell-based. Conditions: 8-point dilution, 10 μM top, 15 hours pre-incubation; FIG. 38C. On the procedure:
Half of the 8-point Compound I-112 treated cells received 20 μl of K562 and the other half received 20 μl of Nalm6 cells.

Another assay has as its target T5, CARBtag-16GS-MITF-FLAG (Homo sapiens, UniProt O75030+Q9UKS7).
T5 construct: MITF (NM_000248); expressed in transfected cells; host or cells: HEK293T (ATCC CRL-3216), transient, FuGene HD, CMV promoter vector
Put plainly: CARBtag-16GS-MITF-FLAG degradation in HEK293T cells, Western blot. In kind it is cell-based. Conditions: 4-point log dilution from 10 μM, 24 hours, FIG. 39.

Another assay concerns CD19-16GS-HilD-V5. The experiment in a line: CD19-16GS-HilD-V5 expression in HEK293T cells, Western blot. The assay is classed as cell-based. Particulars: different doses, 24 hours, data not shown. The protocol:
Cellular gene expression and treatment: HEK293T (ATCC CRL-3216) cells were cultured in DMEM with 10% FBS and pen/strep at 37° C. and 5% CO2. The cells were transfected with either CARBtag-16GS-MITF-FLAG or CARBtag-16GS-MITF-FLAG and CD19-16GS-HilD-V5 using FuGene HD (Promega E2311) using a 3:1 FuGene HD to DNA ratio. […] Cells were treated with the indicated compound for 24 hours and then were prepared for western blot.
The gels were run in triplicate (one for each antibody).

Assay [8] concerns HilD-tagged CAR19 or FurON-CAR19 (NFAT luciferase reporter). The experiment in a line: JNL NFAT luciferase reporter assay, lenalidomide dose-response at three treatment time points. The assay is classed as cell-based, human. In general terms: In a reporter assay the amount or activity of a reporter protein is the signal.
Procedure: This study used the JNL cell line described above, which is a Jurkat cell line modified with an NFAT luciferase reporter. Co-culturing of CAR19-expressing JNL cells and CD19-expressing B cells activates the NFAT signaling, leading to luciferase expression.
For target cell co-culture, K562 cells or CD19-expressing K562 cells were added to each well containing JNL cells and cultured on a GNF Systems Ultra-high throughput screening system in a 37° C. and 5% CO2 incubator.
Assay [9] has as its system IKZF3 136-180 and 236-249-tagged NanoLuciferase. Conditions: 10 μM MG132 one-hour pre-treatment, then 100 μM lenalidomide.
Source text: Samples were pelleted, lysed, run on a protein gel, transferred to a membrane, probed with antibody and developed with film.
Assay [10] addresses IKZF3 136-180 and 236-249-tagged CD19 (Homo sapiens, UniProt P15391). Conditions: 10 μM MG132 pre-treatment, 10 μM lenalidomide.
Procedure: In particular, flow cytometry analysis was conducted to determine whether there was a difference between the total amount of target protein degraded and the total amount of target protein expressed on the cell surface.
CD19 was stained with anti-human CD19 antibody (BD Pharmingen 555413).
In assay [11] the test system is CAR19 fused to HilD tag and/or FurON. Put plainly: Western blot of CAR19 fused to HilD tag and/or FurON in JNL cells. The assay is classed as cell-based, human. Particulars: 10 μM lenalidomide, 24 hours; FurON constructs with 1 μM bazedoxifene.
Procedure: Viruses were prepared from maxi preps and used to transduce JNL cells. Either 275 μL of viral supernatant or 700 μL of viral supernatant was used for transduction. JNL cells are Jurkat cells engineered with a luciferase gene under control of the NFAT promoter.
Briefly, cells were diluted to 0.5×10^6 in 3 mL total in 6 well dishes. […] Bazedoxifene was added at a final concentration of 1 μM to every well that contained a cell line expressing a fusion comprising FurON. […] Cells were incubated at 37° C. and 5% CO2 overnight.
Lysates were centrifuged, supernatant transferred to new tubes and protein quantities read by Lowry Assay (BioRad 5000111). Each sample was normalized to 30 μg total protein in a 20 μL volume with 4× sample buffer (Thermo Scientific NP0007) and 10× reducing agent (Thermo Scientific NP0009). Samples were subjected to Western blot analysis using a mouse anti-V5 antibody (Thermo Scientific MA5-15253) at 1:1000 dilution, a mouse anti-actin antibody (Sigma Aldrich A5441) at 1:10000 dilution, and/or a mouse anti-CD3z antibody (BD 551034) at 1:1000 dilution.
Cells were harvested and subjected to Western blot as described above using a mouse anti-actin antibody (Sigma Aldrich A5441) at 1:10000 dilution or a mouse anti-CD3zeta antibody (BD 551034) at 1:1000 dilution.

Entries after “also recorded” stand apart in the source; their conditions may differ. Where a SMILES comes first, the peptide text is derived from it. The star is where a group is joined. Cbz = O=C(OCc1ccccc1)*

Procedure for CARBtag-16GS-MITF-FLAG: Lysates were centrifuged, supernatant transferred to new tubes and protein quantities read by Lowry Assay (BioRad 5000111). Each sample was normalized to 30 μg total protein in a 20 μl volume with 4× sample buffer (Thermo Scientific NP0007) and 10× reducing agent (Thermo Scientific NP0009). […] The gels were run in triplicate (one for each antibody).
Procedure for HilD-Tau (wild type): One day prior to transfection, HEK293T cells were plated at a density of 150,000 per well in a 24 well plate. […] Cells were incubated overnight. […] Plates were incubated on ice with occasional shaking for 15 minutes. Lysate was then cleared by centrifugation at 15000 g, 4° C. for 15 minutes. LDS buffer and reducing agent were added to the cleared lysate and then samples were heated at 95° C. for 8 minutes. Samples were run on a 10% bis-tris gel at 150V for 70 minutes. Blots were transferred using the Biorad turboblot (Mixed molecular weight setting). Blots were probed with DAKO Tau (total tau) (Dako #A0024), actin (Cell signaling technologies #3700S), and AT8 (phospho-Tau) (Thermo Fisher #MN1020).

As to “IKZF3 136-180 and 236-249: IKZF3-based degradation tag with amino acid residues 136-180 and 236-249 of human IKZF3, SEQ ID NO: 3 (HKRSHTGERPFQCNQCGASFTQKGNLLRHIKLHTGEKPFKCHLCNTASAEARHIKAEMG; source: /note="Description of Unknown: IKZF3 sequence")”, in [1], the “ability of the tag to facilitate lenalidomide-dependent degradation of NanoLuciferase” value is listed as “facilitated lenalidomide-dependent degradation of NanoLuciferase; also recorded: facilitated lenalidomide-induced degradation”. Besides, the “ability of the tag to mediate lenalidomide-dependent degradation of MITF” value (“ability of the tag … of MITF” below) in assay [2] is given as “more effective than IKZF3 136-180”.

For `Nc1cccc2c1C(=O)N(C1CCC(=O)NC1=O)C2=O` (stereo not drawn) [pomalidomide, 4-amino-2-(2,6-dioxopiperidin-3-yl)isoindoline-1,3-dione, reference compound], the “degradation of tagged MITF mediated by IMiD” value in [2] was “effectively facilitated degradation of tagged MITF”; in assay [2] (listed as Pomalidomide) it was “slightly greater extent than lenalidomide”.

With `NS(=O)(=O)OC[C@@H]1C[C@@H](n2ccc3c(N[C@H]4CCc5ccccc54)ncnc32)C[C@@H]1O` [MLN4924], at HilD-Tau (wild type), the “effect of MLN4924 on lenalidomide-induced degradation of Tau” value is reported as “sensitive; also recorded: prevented degradation of Tau”.

For the molecule `C[C@@H]1C[C@@H]([C@H](O)CC2CC(=O)NC(=O)C2)C(=O)[C@@H](C)C1` [cyclohexamide], the “effect of pre-treatment on lenalidomide-dependent degradation of NanoLuciferase” value in [3] is “No obvious reduction”.

`O=C1CCC(N2Cc3cc(C4CCN(Cc5ccc(F)cc5)CC4)ccc3C2=O)C(=O)N1` (stereo not drawn) [Compound I-112, 3-(5-(1-(4-fluorobenzyl)piperidin-4-yl)-1-oxoisoindolin-2-yl)piperidine-2,6-dione]: the “degradation of CAR19-CARBtag” value at CAR19-CARBtag [4] is given as “dose-responsive degradation of CAR19-CARBtag”. Moreover, the “degradation of CARB-tagged MITF” value on CARBtag-MITF-FLAG is listed as “I-112-specific degradation of the CARB-tagged MITF”. Moreover, the “degradation of IKZF2” value on IKZF2 is recorded as “specifically degrade IKZF2”. Further, the “degradation of IKZF1” value at IKZF1 is given as “not IKZF1 or IKZF3”. In addition, at IKZF3, the “degradation of IKZF3” value is on record as “not IKZF1 or IKZF3”. Also, on CAR19-CARBtag [5], the “protein levels of CAR19-CARBtag (Western blot)” value is listed as “dose-dependent decrease”. The “CAR surface expression in JNL CAR19-CARBtag cells” value at CAR19-CARBtag [6] is reported as “reduced CAR surface expression”. For the same molecule, the “response of CAR19-CARBtag cells to CD19+ Nalm6 cells (NFAT luciferase)” value at CAR19-CARBtag [7] is given as “reduced in a dose-dependent manner”. Moreover, on CARBtag-16GS-MITF-FLAG, the “degradation of CARB-tagged MITF (Western blot)” value is listed as “effectively degraded”. Besides, the “expression of CD19-HilDtag (Western blot)” value in the assay on CD19-16GS-HilD-V5 was “remained constant”.

On to “IKZF3 136-180: tag with amino acid residues 136-180 of IKZF3, SEQ ID NO: 5”, for which the “ability of the tag to facilitate lenalidomide-dependent degradation of NanoLuciferase” value in assay [1] was “able to mediate lenalidomide-dependent degradation”. In [2], the “ability of the tag … of MITF” value is “to a lesser degree than IKZF3 136-180 and 236-249”.

Regarding `O=C1CCC(N2C(=O)c3ccccc3C2=O)C(=O)N1` (stereo not drawn) [thalidomide, 2-(2,6-dioxopiperidin-3-yl)isoindoline-1,3-dione, reference compound], in [2], the “degradation of tagged MITF mediated by IMiD” value is reported as “much less effective”.

For `CC(C)C[C@@H](C=O)NC(=O)[C@H](CC(C)C)NC(=O)[C@H](CC(C)C)NC(=O)OCc1ccccc1` [MG132] (Cbz-Leu-Leu-Leu-aldehyde), the “effect of pre-treatment on lenalidomide-dependent degradation of NanoLuciferase” value in [3] is “blocked”. Besides, the “effect of MG132 on lenalidomide-dependent degradation of tagged MITF” value in assay [2] (MG132 treatment) is recorded as “blocked”. Also, the “rescue by MG132 of lenalidomide-induced reduction of reporter signal” value in assay [8] (HilD-tagged CAR19 or lysine-free-HilD-tagged CAR19 (constructs 769, 770)) is “partially rescued”. The “rescue by MG132 of lenalidomide-induced reduction of reporter activation” value in assay [8] (construct 767, MG132 5 hours prior to target cells) is “mostly rescued”. Moreover, the “effect of MG132 on lenalidomide-dependent degradation” value in assay [9] is recorded as “not observed; also recorded: blocked”. Also, the “effect of MG132 on lenalidomide-induced reduction of surface CD19” value in [10] is recorded as “partially blocked”.

“IKZF3 136-180 Q147H: variant of IKZF3 136-180 with glutamine at position 147 replaced with histidine, SEQ ID NO: 27”: the “ability of the tag … of MITF” value in [2] is reported as “blocked the ability of IKZF3 136-180 to mediate the lenalidomide-dependent degradation of MITF; also recorded: did not show degradation”.

B1: construct 765: signal peptide, FurOn, and CAR19 (protein)
chain: RSSLALSLTADQMVSALLDAEPPILYSEYDPTRPFSEASMMGLLTNLADRELVHMINWAKRVPGFVDLALHDQVHLLECAWMEILMIGLVWRSMEHPGKLLFAPNLLLDRNQGKCVEGGVEIFDMLLATSSRFRMMNLQGEEFVCLKSIILLNSGVYTFLSSTLKSLEEKDHIHRVLDKITDTLIHLMAKAGLTLQQQHQRLAQLLLILSHIRHMSSKRMEHLYSMKCKNVVPLSDLLLEMLDAHRLGTGAEDPRPSRKRRSLGDVGEIVMTQSPATLSLSPGERATLSCRASQDISKYLNWYQQKPGQAPRLLIYHTSRLHSGIPARFSGSGSGTDYTLTISSLQPEDFAVYFCQQGNTLPYTFGQGTKLEIKGGGGSGGGGSGGGGSQVQLQESGPGLVKPSETLSLTCTVSGVSLPDYGVSWIRQPPGKGLEWIGVIWGSETTYYQSSLKSRVTISKDNSKNQVSLKLSSVTAADTAVYYCAKHYYYGGSYAMDYWGQGTLVTVSSTTTPAPRPPTPAPTIASQPLSLRPEACRPAAGGAVHTRGLDFACDIYIWAPLAGTCGVLLLSLVITLYCKRGRKKLLYIFKQPFMRPVQTTQEEDGCSCRFPEEEEGGCELRVKFSRSADAPAYQQGQNQLYNELNLGRREEYDVLDKRRGRDPEMGGKPRRKNPQEGLYNELQKDKMAEAYSEIGMKGERRRGKGHDGLYQGLSTATKDTYDALHMQALPPR
Turning to B1, in [11], the “effect of lenalidomide on the CAR construct (Western blot)” value was “did not have any impact”.

Values taken from US20220251152A1, “COMPOSITIONS AND METHODS FOR SELECTIVE PROTEIN DEGRADATION” (Novartis AG, priority 2019, published 2022).
